Data reported in the NIST ThermoML archive (doi:10.1021/je600573w).

Assays:
[1] = molar heat capacity at constant pressure; conditions: 101.33 kPa, Liquid, Small sample (50 mg) DSC
[2] = 101.33 kPa, Liquid, Vibrating tube method

Clc1ccccc1 [chlorobenzene]
Conditions | mass density [kg/m3] | molar heat capacity at constant pressure [J/K/mol]
[1], 283.15 K | – | 147.73
[1], 285.15 K | – | 148.14
[1], 287.15 K | – | 148.56
[1], 289.15 K | – | 148.99
[1], 291.15 K | – | 149.41
[1], 293.15 K | – | 149.85
[1], 295.15 K | – | 150.29
[1], 297.15 K | – | 150.73
[1], 299.15 K | – | 151.18
[1], 301.15 K | – | 151.64
[1], 303.15 K | – | 152.1
[1], 305.15 K | – | 152.56
[1], 307.15 K | – | 153.03
[1], 309.15 K | – | 153.5
[1], 311.15 K | – | 153.97
[1], 313.15 K | – | 154.45
[1], 315.15 K | – | 154.93
[1], 317.15 K | – | 155.41
[1], 319.15 K | – | 155.9
[1], 321.15 K | – | 156.39
[1], 323.15 K | – | 156.88
[1], 325.15 K | – | 157.37
[1], 327.15 K | – | 157.86
[1], 329.15 K | – | 158.36
[1], 331.15 K | – | 158.86
[1], 333.15 K | – | 159.35
[1], 335.15 K | – | 159.85
[1], 337.15 K | – | 160.35
[1], 339.15 K | – | 160.85
[1], 341.15 K | – | 161.35
[1], 343.15 K | – | 161.85
[1], 345.15 K | – | 162.35
[1], 347.15 K | – | 162.85
[1], 349.15 K | – | 163.34
[1], 351.15 K | – | 163.84
[1], 353.15 K | – | 164.34
[2], 288.15 K | 1111.9 | –
[2], 298.15 K | 1101.14 | –
[2], 308.15 K | 1090.34 | –
[2], 318.15 K | 1079.48 | –
[2], 328.15 K | 1068.57 | –
[2], 338.15 K | 1057.58 | –

Brc1ccccc1 [bromobenzene]
Conditions | mass density [kg/m3] | molar heat capacity at constant pressure [J/K/mol]
[1], 283.15 K | – | 151.63
[1], 285.15 K | – | 151.99
[1], 287.15 K | – | 152.37
[1], 289.15 K | – | 152.75
[1], 291.15 K | – | 153.14
[1], 293.15 K | – | 153.54
[1], 295.15 K | – | 153.94
[1], 297.15 K | – | 154.35
[1], 299.15 K | – | 154.77
[1], 301.15 K | – | 155.19
[1], 303.15 K | – | 155.62
[1], 305.15 K | – | 156.05
[1], 307.15 K | – | 156.49
[1], 309.15 K | – | 156.93
[1], 311.15 K | – | 157.38
[1], 313.15 K | – | 157.83
[1], 315.15 K | – | 158.28
[1], 317.15 K | – | 158.74
[1], 319.15 K | – | 159.2
[1], 321.15 K | – | 159.66
[1], 323.15 K | – | 160.13
[1], 325.15 K | – | 160.6
[1], 327.15 K | – | 161.06
[1], 329.15 K | – | 161.53
[1], 331.15 K | – | 162
[1], 333.15 K | – | 162.48
[1], 335.15 K | – | 162.95
[1], 337.15 K | – | 163.42
[1], 339.15 K | – | 163.89
[1], 341.15 K | – | 164.36
[1], 343.15 K | – | 164.83
[1], 345.15 K | – | 165.3
[1], 347.15 K | – | 165.76
[1], 349.15 K | – | 166.23
[1], 351.15 K | – | 166.69
[1], 353.15 K | – | 167.15
[2], 288.15 K | 1501.95 | –
[2], 298.15 K | 1488.45 | –
[2], 308.15 K | 1474.94 | –
[2], 318.15 K | 1461.39 | –
[2], 328.15 K | 1447.8 | –
[2], 338.15 K | 1434.15 | –

Clc1ccc(Cl)cc1 [1,4-dichlorobenzene]
[1]
Conditions | molar heat capacity at constant pressure [J/K/mol]
327.15 K | 177.09
329.15 K | 177.53
331.15 K | 177.98
333.15 K | 178.43
335.15 K | 178.89
337.15 K | 179.35
339.15 K | 179.81
341.15 K | 180.28
343.15 K | 180.76
345.15 K | 181.24
347.15 K | 181.73
349.15 K | 182.22
351.15 K | 182.71
353.15 K | 183.21

Clc1ccccc1Cl [1,2-dichlorobenzene]
Conditions | mass density [kg/m3] | molar heat capacity at constant pressure [J/K/mol]
[1], 283.15 K | – | 167.68
[1], 285.15 K | – | 168.06
[1], 287.15 K | – | 168.44
[1], 289.15 K | – | 168.83
[1], 291.15 K | – | 169.23
[1], 293.15 K | – | 169.64
[1], 295.15 K | – | 170.05
[1], 297.15 K | – | 170.47
[1], 299.15 K | – | 170.89
[1], 301.15 K | – | 171.32
[1], 303.15 K | – | 171.76
[1], 305.15 K | – | 172.2
[1], 307.15 K | – | 172.64
[1], 309.15 K | – | 173.09
[1], 311.15 K | – | 173.54
[1], 313.15 K | – | 174
[1], 315.15 K | – | 174.46
[1], 317.15 K | – | 174.92
[1], 319.15 K | – | 175.38
[1], 321.15 K | – | 175.85
[1], 323.15 K | – | 176.32
[1], 325.15 K | – | 176.79
[1], 327.15 K | – | 177.26
[1], 329.15 K | – | 177.73
[1], 331.15 K | – | 178.2
[1], 333.15 K | – | 178.67
[1], 335.15 K | – | 179.14
[1], 337.15 K | – | 179.61
[1], 339.15 K | – | 180.07
[1], 341.15 K | – | 180.54
[1], 343.15 K | – | 181
[1], 345.15 K | – | 181.47
[1], 347.15 K | – | 181.92
[1], 349.15 K | – | 182.38
[1], 351.15 K | – | 182.83
[1], 353.15 K | – | 183.28
[2], 288.15 K | 1311.76 | –
[2], 298.15 K | 1300.61 | –
[2], 308.15 K | 1289.45 | –
[2], 318.15 K | 1278.29 | –
[2], 328.15 K | 1267.09 | –
[2], 338.15 K | 1255.87 | –

Clc1cccc(Cl)c1 [1,3-dichlorobenzene]
Conditions | mass density [kg/m3] | molar heat capacity at constant pressure [J/K/mol]
[1], 283.15 K | – | 167.15
[1], 285.15 K | – | 167.54
[1], 287.15 K | – | 167.93
[1], 289.15 K | – | 168.32
[1], 291.15 K | – | 168.72
[1], 293.15 K | – | 169.13
[1], 295.15 K | – | 169.55
[1], 297.15 K | – | 169.97
[1], 299.15 K | – | 170.39
[1], 301.15 K | – | 170.82
[1], 303.15 K | – | 171.25
[1], 305.15 K | – | 171.69
[1], 307.15 K | – | 172.14
[1], 309.15 K | – | 172.58
[1], 311.15 K | – | 173.04
[1], 313.15 K | – | 173.49
[1], 315.15 K | – | 173.95
[1], 317.15 K | – | 174.41
[1], 319.15 K | – | 174.88
[1], 321.15 K | – | 175.35
[1], 323.15 K | – | 175.83
[1], 325.15 K | – | 176.3
[1], 327.15 K | – | 176.78
[1], 329.15 K | – | 177.26
[1], 331.15 K | – | 177.75
[1], 333.15 K | – | 178.24
[1], 335.15 K | – | 178.73
[1], 337.15 K | – | 179.22
[1], 339.15 K | – | 179.71
[1], 341.15 K | – | 180.2
[1], 343.15 K | – | 180.7
[1], 345.15 K | – | 181.2
[1], 347.15 K | – | 181.7
[1], 349.15 K | – | 182.2
[1], 351.15 K | – | 182.7
[1], 353.15 K | – | 183.2
[2], 288.15 K | 1294.08 | –
[2], 298.15 K | 1282.79 | –
[2], 308.15 K | 1271.49 | –
[2], 318.15 K | 1260.17 | –
[2], 328.15 K | 1248.82 | –
[2], 338.15 K | 1237.42 | –
